Test results from patent publication US7781565B2 (priority 2006, dated 2010).
“Also recorded” adds a separate entry of the source.

test system: NCI-60 cell lines; format: cell-based, human

Row | Substance | Cell Line (NCI-60 cell line the peptide and its motif are associated with) | Cell Line with which the peptide (and its tripeptide motif) is associated | Cell Line (NCI-60 cell line the peptide is associated with) | Cell Line the peptide is associated with (peptide recovered from phage library selection on this NCI-60 cell line)
1 | FVPRGSY | OVCAR-4 Ovarian |  |  | 
2 | GLLSLXL |  | CCRF-CEM Leukemia |  | 
3 | YSGRLVM |  |  | SNB-75 CNS | 
4 | LNAGGSG | DU-145 Prostate |  |  | 
5 | VSAASSV |  |  |  | RXF393 Renal
6 | GGLPVQM | PC3 Prostate |  |  | 
7 | FWISRAS |  | RPMI-8226-Leukemia |  | 
8 | AVEGRGS |  |  | HCT-116 Colon | 
9 | REGGSDT |  |  |  | NCI/ADR-RES Breast
10 | GSSACGA |  |  | U251 CNS | 
11 | SRGSYGS |  |  |  | MDA-MB-435-Breast
12 | FRVSLGY |  |  |  | ACHN Renal
13 | AGSMMEF | OVCAR-3 Ovarian |  |  | 
14 | DIALVSP |  | A549-Lung |  | 
15 | GTHSGLR | SK-MEL-2 Melanoma |  |  | 
16 | LGLRGGA |  |  | SF-268 CNS | 
17 | GRGVTIW |  |  | HT-29 Colon | 
18 | NPGLVWN |  |  |  | MDA-MB-231 Breast
19 | RDGRGAG |  |  | SF-295 CNS | 
20 | AGRTGVG |  | SR Leukemia |  | 
21 | SELRSIR |  |  | COLO-205-Colon | 
22 | AVSLAWQ |  |  |  | T-47D Breast
23 | YNRSAGL |  | CCRF-CEM Leukemia |  | 

Row | Substance | Cell Line (NCI-60 cell line the peptide and its motif are associated with) | Cell Line with which the peptide (and its tripeptide motif) is associated | Cell Line (NCI-60 cell line the peptide is associated with) | Cell Line the peptide is associated with (peptide recovered from phage library selection on this NCI-60 cell line)
24 | LLRSSLG |  |  | HCT-116 Colon | 
25 | PAASRLL |  | RPMI-8226-Leukemia |  | 
26 | AAVETGV |  |  | SF-268 CNS | 
27 | RVGRLGG |  | A549-Lung |  | 
28 | NSFGLRY |  |  | COLO-205-Colon | 
29 | PIGAVMN | DU-145 Prostate |  |  | 
30 | DWRRRAV |  |  | HCT-15 Colon | 
31 | AARAVWG |  |  |  | RXF393 Renal
32 | PQGPSSV |  |  |  | ACHN Renal
33 | RSSYAPP |  |  |  | ACHN Renal
34 | SRYTLRS | IGROV1 Ovarian |  |  | 
35 | GVSKVRA |  | A549-Lung |  | 
36 | GGLVKRL | SK-MEL-2 Melanoma |  |  | 
37 | WVGSSKF |  | A549-Lung |  | 
38 | GGRVLGQ | OVCAR-4 Ovarian |  |  | 
39 | HGGRYRH | UACC 257 Melanoma |  |  | 
40 | AIRAGSD |  | K-562-Leukemia |  | 
41 | RNSRAGL |  |  |  | UO31 Renal
42 | ADWGVLE |  |  | SNB-75 CNS | 
43 | LVRASNG | SK-MEL-28 Melanoma |  |  | 
44 | NEGRLGI |  |  | SNB-75 CNS | 
45 | RALGLVS |  | CCRF-CEM Leukemia |  | 
46 | GSNGSSH | OVCAR-8 Ovarian |  |  | 

Row | Substance | Cell Line (NCI-60 cell line the peptide and its motif are associated with) | Cell Line with which the peptide (and its tripeptide motif) is associated | Cell Line (NCI-60 cell line the peptide is associated with) | Cell Line the peptide is associated with (peptide recovered from phage library selection on this NCI-60 cell line)
47 | GRDWGGL |  |  |  | T-47D Breast
48 | STSLGAG |  | H322-Lung |  | 
49 | RRLSYRE | OVCAR-8 Ovarian |  |  | 
50 | WGRGSVA |  | Molt-4-Leukemia |  | 
51 | SHHRSSI |  |  |  | SN12C Renal
52 | ARRGSGL | MALME-3M Melanoma |  | MALME-3M Melanoma | 
53 | SRVSNPS | SK-MEL-2 Melanoma |  |  | 
54 | RVPTGVR |  |  |  | SN12C Renal
55 | LFGSSVS |  |  |  | SN12C Renal
56 | DLGLRPV |  | Molt-4-Leukemia |  | 
57 | GDLRVSV |  |  |  | UO31 Renal
58 | EAGPRGV |  |  |  | BT-549 Breast
59 | IDLGRVN | SK-MEL-5 Melanoma |  |  | 
60 | RGVGKTK |  |  |  | MDA-MB-231 Breast
61 | RAVGRQL | OVCAR-5 Ovarian |  |  | 
62 | LGGARGV |  |  |  | MDA-MB-231 Breast
63 | RSSIDVG |  |  |  | NCI/ADR-RES Breast
64 | LGGRQES |  |  |  | ACHN Renal
65 | VARAVPC |  | Hop-92-Lung |  | 
66 | SRASGHG |  |  | HT-29 Colon | 
67 | KVSVASL | SK-MEL-5 Melanoma |  |  | 
68 | VRPRAVL | UACC62 Melanoma |  |  | 
69 | LGLSGLG |  |  |  | NCI/ADR-RES Breast

Row | Substance | Cell Line (NCI-60 cell line the peptide and its motif are associated with) | Cell Line with which the peptide (and its tripeptide motif) is associated | Cell Line (NCI-60 cell line the peptide is associated with) | Cell Line the peptide is associated with (peptide recovered from phage library selection on this NCI-60 cell line)
70 | TGRSSFW |  |  |  | TK-10 Renal
71 | GRERVSH |  |  |  | CAIK-1 Renal
72 | YRGSSGK |  | RPMI-8226-Leukemia |  | 
73 | SRLSYCN | OVCAR-4 Ovarian |  |  | 
74 | SRLSYRS |  | A549-Lung |  | 
75 | SERSSLG |  | Hop-92-Lung |  | 
76 | GGVRIAA |  |  | HCT-116 Colon | 
77 | SNARGPR |  | K-562-Leukemia |  | 
78 | CVGLGCH | OVCAR-4 Ovarian |  |  | 
79 | GGRAIGA |  | Hop-92-Lung |  | 
80 | FDRAVAN |  | Hop-62-Lung |  | 
81 | GVAIGRL |  |  |  | CAIK-1 Renal
82 | KGSVLML |  |  |  | NCI/ADR-RES Breast
83 | AGPSAWL |  | Hop-92-Lung |  | 
84 | SRAVIDM |  | CCRF-CEM Leukemia |  | 
85 | FSPRGSV |  |  | SNB-19 CNS; also recorded: SF-539 CNS | 
86 | RIFHGAV |  |  | SNB-19 CNS; also recorded: SF-539 CNS | 
87 | FSGDAVS |  |  | HT-29 Colon | 
88 | FDPGGLR |  |  |  | SN12C Renal
89 | GAGRFPH | 786-0 Renal |  |  | 
90 | GGRPTVT |  |  |  | HS 578 T Breast
91 | ATLDGVS | SK-OV-3-3 Ovarian |  |  | 
92 | GGWARAV |  |  | SNB-75 CNS | 

Row | Substance | Cell Line (NCI-60 cell line the peptide and its motif are associated with) | Cell Line with which the peptide (and its tripeptide motif) is associated | Cell Line (NCI-60 cell line the peptide is associated with) | Cell Line the peptide is associated with (peptide recovered from phage library selection on this NCI-60 cell line)
93 | AGDRGVA | DU-145 Prostate |  |  | 
94 | GALRVPW |  |  | HCT-15 Colon | 
95 | RQLVSPA |  |  | HT-29 Colon | 
96 | PPGGLKW |  |  | SW620-Colon | 
97 | IAGLAVV |  |  | SNB-75 CNS | 
98 | IHRGVWG | 786-0 Renal |  |  | 
99 | HGGRARL |  |  | HT-29 Colon | 
100 | WLDAAVK |  |  | LOX-IMVI Melanoma | 
101 | LRSSGAT |  | H322-Lung |  | 
102 | RDGVRVG |  |  | LOX-IMVI Melanoma | 
103 | AVRGGRP |  | Hop-92-Lung |  | 
104 | ARSSHRA |  |  | HCT-116 Colon | 
105 | RRLSYHS | M14 Melanoma; also recorded: OVCAR-3 Ovarian |  |  | 
106 | GLVSTLI |  |  |  | BT-549 Breast
107 | WRASAFT |  | SR Leukemia |  | 
108 | PGFMAGS | UACC62 Melanoma |  |  | 
109 | DRFGSSA |  |  |  | ACHN Renal
110 | RASFRAG |  | SR Leukemia |  | 
111 | SRHGLVR |  |  | HCT-15 Colon | 
112 | GSSLHLL |  | RPMI-8226-Leukemia |  | 
